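Each compound was tested at five concentrations against cells in 96-well plates for 48 hours. GI50 marks 50% less growth. TGI denotes the concentration required for complete inhibition of growth.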
How the values were obtained:
Experiment in all cases: growth of human tumour cells (NCI), 48 h
HL-60(TB) leukemia = tested on: HL-60(TB) leukemia
OVCAR-5 ovarian = tested on: OVCAR-5 ovarian
DU-145 prostate = tested on: DU-145 prostate
OVCAR-4 ovarian = tested on: OVCAR-4 ovarian
NCI-H226 lung = tested on: NCI-H226 lung
MOLT-4 leukemia = tested on: MOLT-4 leukemia
SK-MEL-28 melanoma = tested on: SK-MEL-28 melanoma
MDA-MB-231 breast = tested on: MDA-MB-231 breast
IGROV1 ovarian = tested on: IGROV1 ovarian
NCI-H522 lung = tested on: NCI-H522 lung

## Cc1nc2ncn3c(c-2c1Cc1ccccc1)NC=C(O)N3
HL-60(TB) leukemia
  TGI: > 100 µM
OVCAR-5 ovarian
  TGI: > 100 µM
DU-145 prostate
  TGI: > 100 µM
OVCAR-4 ovarian
  TGI: > 100 µM
NCI-H226 lung
  TGI: > 100 µM
MOLT-4 leukemia
  TGI: > 100 µM
SK-MEL-28 melanoma
  TGI: > 100 µM
MDA-MB-231 breast
  TGI: > 100 µM
IGROV1 ovarian
  TGI: 65.7 µM
NCI-H522 lung
  TGI: > 100 µM

## COC(=O)C[C@H](COCc1ccccc1)NC(=O)C[C@H](COCc1ccccc1)NC(=O)OC(C)(C)C
HL-60(TB) leukemia
  TGI: > 100 µM
OVCAR-5 ovarian
  TGI: 99.8 µM
DU-145 prostate
  TGI: 44.9 µM
OVCAR-4 ovarian
  TGI: 36.7 µM
NCI-H226 lung
  TGI: > 100 µM
MOLT-4 leukemia
  TGI: > 100 µM
SK-MEL-28 melanoma
  TGI: > 100 µM
MDA-MB-231 breast
  TGI: > 100 µM
IGROV1 ovarian
  TGI: > 100 µM
NCI-H522 lung
  TGI: 54 µM

## CCCCCOC(=O)c1cc2cc(CCl)ccc2oc1=O
HL-60(TB) leukemia
  TGI: 7.19 µM
OVCAR-5 ovarian
  TGI: 31.6 µM
DU-145 prostate
  TGI: 17.1 µM
OVCAR-4 ovarian
  TGI: 18.6 µM
NCI-H226 lung
  TGI: 38 µM
MOLT-4 leukemia
  TGI: > 81.7 µM
SK-MEL-28 melanoma
  TGI: 60.2 µM
MDA-MB-231 breast
  TGI: 37.5 µM
IGROV1 ovarian
  TGI: 27.8 µM
NCI-H522 lung
  TGI: 1.3 µM

## Cc1cc(=O)[nH]c(/N=C(\N)Nc2ccc(Cl)cc2)n1
HL-60(TB) leukemia
  TGI: > 100 µM
OVCAR-5 ovarian
  TGI: > 100 µM
DU-145 prostate
  TGI: > 100 µM
NCI-H226 lung
  TGI: > 100 µM
MOLT-4 leukemia
  TGI: > 100 µM
SK-MEL-28 melanoma
  TGI: > 100 µM
MDA-MB-231 breast
  TGI: > 100 µM
IGROV1 ovarian
  TGI: > 100 µM
NCI-H522 lung
  TGI: > 100 µM

## Nc1ccc(-c2nc3cc(F)ccc3s2)cc1CO
HL-60(TB) leukemia
  TGI: > 100 µM
OVCAR-5 ovarian
  TGI: > 100 µM
DU-145 prostate
  TGI: > 100 µM
OVCAR-4 ovarian
  TGI: > 100 µM
NCI-H226 lung
  TGI: 0.409 µM
MOLT-4 leukemia
  TGI: > 100 µM
SK-MEL-28 melanoma
  TGI: > 100 µM
MDA-MB-231 breast
  TGI: > 70 µM
IGROV1 ovarian
  TGI: 63.4 µM
NCI-H522 lung
  TGI: > 100 µM

## O=C1/C(=C\c2ccc(F)cc2)CCOc2c1ccc1ccccc21
HL-60(TB) leukemia
  TGI: > 72.4 µM
OVCAR-5 ovarian
  TGI: 42.3 µM
DU-145 prostate
  TGI: 98 µM
OVCAR-4 ovarian
  TGI: > 100 µM
NCI-H226 lung
  GI50: 33.6 µM
  TGI: > 100 µM
MOLT-4 leukemia
  TGI: > 47.8 µM
SK-MEL-28 melanoma
  TGI: > 71.1 µM
MDA-MB-231 breast
  TGI: > 47.7 µM
IGROV1 ovarian
  GI50: > 100 µM
  TGI: > 100 µM
NCI-H522 lung
  TGI: > 100 µM

## COc1ccc(C(=O)N(C(=O)N2CCN(c3ccccc3)CC2)S(=O)(=O)c2ccccc2)cc1
HL-60(TB) leukemia
  TGI: 48.9 µM
OVCAR-5 ovarian
  TGI: 70.8 µM
DU-145 prostate
  TGI: 72.2 µM
OVCAR-4 ovarian
  TGI: > 100 µM
NCI-H226 lung
  TGI: 58.8 µM
MOLT-4 leukemia
  TGI: 46.5 µM
SK-MEL-28 melanoma
  TGI: > 100 µM
MDA-MB-231 breast
  TGI: 81.9 µM
NCI-H522 lung
  TGI: 33.3 µM

## COC(CN(C=O)[C@@H](c1ccc(Cl)cc1)c1cc2ccccc2o1)OC
HL-60(TB) leukemia
  TGI: 46.3 µM
OVCAR-5 ovarian
  TGI: 29.8 µM
DU-145 prostate
  TGI: 30.9 µM
OVCAR-4 ovarian
  TGI: 40 µM
NCI-H226 lung
  TGI: 34 µM
MOLT-4 leukemia
  TGI: 40 µM
SK-MEL-28 melanoma
  TGI: 34.5 µM
MDA-MB-231 breast
  TGI: 37 µM
IGROV1 ovarian
  TGI: 30.7 µM
NCI-H522 lung
  TGI: 29.2 µM

## Nc1ccc(Oc2ccc(C34CC5CC(C3)CC(c3ccc(Oc6ccc(N)cc6)cc3)(C5)C4)cc2)cc1
HL-60(TB) leukemia
  TGI: > 66.9 µM
OVCAR-5 ovarian
  TGI: 62.2 µM
DU-145 prostate
  TGI: 33.3 µM
OVCAR-4 ovarian
  TGI: 51.2 µM
NCI-H226 lung
  TGI: 75.2 µM
MOLT-4 leukemia
  TGI: > 100 µM
SK-MEL-28 melanoma
  TGI: > 72.1 µM
MDA-MB-231 breast
  TGI: 32.9 µM
IGROV1 ovarian
  TGI: 15.4 µM
NCI-H522 lung
  TGI: 38.7 µM

## O=[N+]([O-])c1ccc2c(c1)nc(Cc1ccc(Cl)cc1)n2C[C@@H]1CCCN2CCCCC12 (stereo partly specified)
HL-60(TB) leukemia
  TGI: 66.1 µM
OVCAR-5 ovarian
  TGI: 35.3 µM
DU-145 prostate
  TGI: 38.1 µM
OVCAR-4 ovarian
  TGI: > 44 µM
NCI-H226 lung
  TGI: 38.3 µM
MOLT-4 leukemia
  TGI: > 44.8 µM
SK-MEL-28 melanoma
  TGI: 30.1 µM
MDA-MB-231 breast
  TGI: 32.6 µM
IGROV1 ovarian
  TGI: 26.7 µM
NCI-H522 lung
  TGI: 27.4 µM

## NC(=S)N1N=C(c2ccccc2O)CC1c1ccccc1 (stereo unspecified)
HL-60(TB) leukemia
  TGI: 27.4 µM
OVCAR-5 ovarian
  TGI: 50.9 µM
DU-145 prostate
  TGI: 81.3 µM
OVCAR-4 ovarian
  TGI: 67.1 µM
NCI-H226 lung
  TGI: 53.8 µM
MOLT-4 leukemia
  TGI: 78.7 µM
SK-MEL-28 melanoma
  TGI: 58.5 µM
IGROV1 ovarian
  TGI: 48.6 µM
NCI-H522 lung
  TGI: 18.8 µM

## CCCN1C(=O)CSC1=Nc1ccc2cc3ccc(N=C4SCC(=O)N4CCC)cc3nc2c1
HL-60(TB) leukemia
  GI50: > 100 µM
  TGI: > 100 µM
OVCAR-5 ovarian
  GI50: > 100 µM
  TGI: > 100 µM
DU-145 prostate
  GI50: 30.8 µM
  TGI: > 100 µM
OVCAR-4 ovarian
  GI50: 45.8 µM
  TGI: > 100 µM
NCI-H226 lung
  GI50: 16.5 µM
  TGI: > 100 µM
MOLT-4 leukemia
  GI50: > 100 µM
  TGI: > 100 µM
SK-MEL-28 melanoma
  GI50: > 100 µM
  TGI: > 100 µM
MDA-MB-231 breast
  GI50: 25.1 µM
  TGI: > 100 µM

## COc1cc([C@@H]2c3cc4c(cc3[C@@H](c3c(O)cc(O)c5c3O[C@H](c3ccc(O)c(O)c3)[C@H](OC(=O)c3cc(O)c(O)c(O)c3)C5)[C@H]3COC(=O)[C@H]23)OCO4)cc(OC)c1OC
HL-60(TB) leukemia
  TGI: 0.729 µM
OVCAR-5 ovarian
  TGI: > 100 µM
DU-145 prostate
  TGI: > 100 µM
OVCAR-4 ovarian
  TGI: > 100 µM
NCI-H226 lung
  TGI: 7.53 µM
MOLT-4 leukemia
  TGI: > 100 µM
SK-MEL-28 melanoma
  TGI: > 100 µM
MDA-MB-231 breast
  TGI: > 100 µM
IGROV1 ovarian
  TGI: > 100 µM
NCI-H522 lung
  TGI: > 100 µM

## Cc1cnoc1NS(=O)(=O)c1ccc(Nc2nnc(/C=C/c3c(O)ccc4ccccc34)c(=O)n2N)cc1
HL-60(TB) leukemia
  TGI: 22.4 µM
OVCAR-5 ovarian
  TGI: 77.9 µM
DU-145 prostate
  TGI: > 100 µM
OVCAR-4 ovarian
  TGI: > 100 µM
MOLT-4 leukemia
  TGI: > 100 µM
IGROV1 ovarian
  TGI: > 100 µM

## COC1CC(CC2CCC(C)C(C(C)C(=O)O)O2)OC2(OC(C)(C3CCC(C)(C4OC(C5OC(O)(CO)C(C)CC5C)CC4C)O3)CC2C)C1C (stereo unspecified)
HL-60(TB) leukemia
  TGI: 1.1 µM
OVCAR-5 ovarian
  TGI: 69.6 µM
DU-145 prostate
  TGI: > 100 µM
OVCAR-4 ovarian
  TGI: 53.1 µM
NCI-H226 lung
  TGI: 21.3 µM
MOLT-4 leukemia
  TGI: 6.13 µM
SK-MEL-28 melanoma
  TGI: 6.66 µM
MDA-MB-231 breast
  TGI: 46 µM
IGROV1 ovarian
  TGI: 66.9 µM
NCI-H522 lung
  TGI: 0.591 µM
